Measurements: patent publication US20210070748A1, “INHIBITORS OF BRUTONS TYROSINE KINASE” (Pharmacyclics LLC, priority 2015, published 2021)
Where two headings read alike, the source gives them in different places.

What was measured:
Format in all cases: biochemical
[1] = target: T1, JAK3 (Homo sapiens, UniProt P52333); test: Inhibition of a panel of kinases, in vitro HotSpot kinase assay: JAK3; conditions: read-out: IC50 JAK3
T1 sequence (P52333 1-1124): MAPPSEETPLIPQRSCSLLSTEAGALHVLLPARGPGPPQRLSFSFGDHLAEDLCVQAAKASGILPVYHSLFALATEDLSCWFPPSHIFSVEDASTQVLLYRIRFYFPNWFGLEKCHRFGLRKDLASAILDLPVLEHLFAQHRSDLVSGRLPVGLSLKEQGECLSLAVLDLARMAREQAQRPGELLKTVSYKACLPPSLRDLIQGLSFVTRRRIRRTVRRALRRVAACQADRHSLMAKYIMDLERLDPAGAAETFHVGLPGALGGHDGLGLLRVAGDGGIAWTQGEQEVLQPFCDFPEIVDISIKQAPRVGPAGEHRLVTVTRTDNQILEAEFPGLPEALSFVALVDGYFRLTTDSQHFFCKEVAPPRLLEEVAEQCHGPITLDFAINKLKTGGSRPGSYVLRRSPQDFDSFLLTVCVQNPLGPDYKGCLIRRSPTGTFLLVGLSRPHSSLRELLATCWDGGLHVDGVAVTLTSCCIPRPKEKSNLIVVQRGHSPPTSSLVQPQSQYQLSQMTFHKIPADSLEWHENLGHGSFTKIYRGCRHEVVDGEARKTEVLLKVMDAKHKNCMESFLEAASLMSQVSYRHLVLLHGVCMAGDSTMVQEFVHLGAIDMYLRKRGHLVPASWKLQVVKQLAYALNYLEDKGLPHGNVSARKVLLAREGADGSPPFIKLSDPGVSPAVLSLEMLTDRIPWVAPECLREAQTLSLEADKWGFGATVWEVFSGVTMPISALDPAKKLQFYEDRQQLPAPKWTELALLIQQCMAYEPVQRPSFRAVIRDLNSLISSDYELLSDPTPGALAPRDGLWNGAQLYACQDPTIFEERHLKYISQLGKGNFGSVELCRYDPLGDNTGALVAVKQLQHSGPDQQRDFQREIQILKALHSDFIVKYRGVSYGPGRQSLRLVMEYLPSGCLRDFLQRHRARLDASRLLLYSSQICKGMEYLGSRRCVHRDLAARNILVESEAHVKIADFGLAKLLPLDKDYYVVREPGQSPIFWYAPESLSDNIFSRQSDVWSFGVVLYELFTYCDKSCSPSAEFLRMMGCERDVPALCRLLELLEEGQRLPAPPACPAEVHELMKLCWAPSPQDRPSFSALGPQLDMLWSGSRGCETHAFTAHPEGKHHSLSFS

[2] = target: LCK (Homo sapiens, UniProt P06239); test: Inhibition of a panel of kinases, in vitro HotSpot kinase assay: LCK; conditions: read-out: IC50 LCK
[3] = target: T2, ITK (Homo sapiens, UniProt Q08881); test: Inhibition of a panel of kinases, in vitro HotSpot kinase assay: ITK
T2 sequence (Q08881 1-620): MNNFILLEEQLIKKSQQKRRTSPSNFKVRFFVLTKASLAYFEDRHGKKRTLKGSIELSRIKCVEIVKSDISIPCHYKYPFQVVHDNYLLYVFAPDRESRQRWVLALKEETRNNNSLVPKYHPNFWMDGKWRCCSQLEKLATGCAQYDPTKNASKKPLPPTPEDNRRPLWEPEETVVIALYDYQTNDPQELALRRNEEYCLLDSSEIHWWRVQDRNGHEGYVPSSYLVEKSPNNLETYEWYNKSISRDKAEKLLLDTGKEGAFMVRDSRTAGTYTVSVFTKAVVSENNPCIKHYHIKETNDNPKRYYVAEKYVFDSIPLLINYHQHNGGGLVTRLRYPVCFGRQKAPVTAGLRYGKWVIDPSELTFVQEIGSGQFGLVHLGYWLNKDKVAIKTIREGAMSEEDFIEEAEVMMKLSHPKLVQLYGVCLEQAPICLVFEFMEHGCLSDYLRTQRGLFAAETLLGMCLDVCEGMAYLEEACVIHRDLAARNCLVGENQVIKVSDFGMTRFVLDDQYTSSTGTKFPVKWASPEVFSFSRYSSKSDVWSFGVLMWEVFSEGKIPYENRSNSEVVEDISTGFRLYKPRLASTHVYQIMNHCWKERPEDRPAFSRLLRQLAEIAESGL
Experimental: (§1) The degree of inhibition of a panel of kinases is determined using the in vitro HotSpot kinase assay (purified enzymes, ^33P-ATP, an appropriate substrate and 1 μM ATP).

[4] = target: EGFR (Homo sapiens, UniProt P00533); test: Inhibition of a panel of kinases, in vitro HotSpot kinase assay: EGFR
Experimental: as §1

[5] = target: SRC (Homo sapiens, UniProt P12931); test: Inhibition of a panel of kinases, in vitro HotSpot kinase assay: SRC
Experimental: as §1

[6] = target: T3, TEC (Homo sapiens, UniProt P42680); test: Inhibition of a panel of kinases, in vitro HotSpot kinase assay: TEC
T3 sequence (P42680 1-631): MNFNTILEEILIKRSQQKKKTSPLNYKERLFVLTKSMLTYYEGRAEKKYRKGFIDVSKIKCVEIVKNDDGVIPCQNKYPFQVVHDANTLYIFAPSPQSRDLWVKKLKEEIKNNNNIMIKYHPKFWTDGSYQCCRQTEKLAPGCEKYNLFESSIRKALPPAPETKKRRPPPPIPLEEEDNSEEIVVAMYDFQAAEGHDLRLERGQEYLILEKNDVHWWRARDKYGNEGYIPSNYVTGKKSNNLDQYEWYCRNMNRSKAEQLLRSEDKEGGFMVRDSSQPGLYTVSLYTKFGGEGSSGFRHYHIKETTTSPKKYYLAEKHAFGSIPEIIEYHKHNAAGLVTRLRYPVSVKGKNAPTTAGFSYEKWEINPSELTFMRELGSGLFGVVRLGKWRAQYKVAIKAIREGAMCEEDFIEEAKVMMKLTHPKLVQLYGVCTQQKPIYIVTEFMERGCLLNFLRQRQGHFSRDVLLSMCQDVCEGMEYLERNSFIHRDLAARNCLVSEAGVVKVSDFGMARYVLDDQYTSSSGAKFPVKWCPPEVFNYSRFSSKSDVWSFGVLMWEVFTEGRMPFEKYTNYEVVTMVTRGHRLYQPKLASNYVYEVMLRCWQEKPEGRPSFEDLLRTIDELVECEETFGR
Experimental: as §1

[7] = Table 13, A compounds, 1 μM ATP

Chain of EGFR (P00533 25-1210): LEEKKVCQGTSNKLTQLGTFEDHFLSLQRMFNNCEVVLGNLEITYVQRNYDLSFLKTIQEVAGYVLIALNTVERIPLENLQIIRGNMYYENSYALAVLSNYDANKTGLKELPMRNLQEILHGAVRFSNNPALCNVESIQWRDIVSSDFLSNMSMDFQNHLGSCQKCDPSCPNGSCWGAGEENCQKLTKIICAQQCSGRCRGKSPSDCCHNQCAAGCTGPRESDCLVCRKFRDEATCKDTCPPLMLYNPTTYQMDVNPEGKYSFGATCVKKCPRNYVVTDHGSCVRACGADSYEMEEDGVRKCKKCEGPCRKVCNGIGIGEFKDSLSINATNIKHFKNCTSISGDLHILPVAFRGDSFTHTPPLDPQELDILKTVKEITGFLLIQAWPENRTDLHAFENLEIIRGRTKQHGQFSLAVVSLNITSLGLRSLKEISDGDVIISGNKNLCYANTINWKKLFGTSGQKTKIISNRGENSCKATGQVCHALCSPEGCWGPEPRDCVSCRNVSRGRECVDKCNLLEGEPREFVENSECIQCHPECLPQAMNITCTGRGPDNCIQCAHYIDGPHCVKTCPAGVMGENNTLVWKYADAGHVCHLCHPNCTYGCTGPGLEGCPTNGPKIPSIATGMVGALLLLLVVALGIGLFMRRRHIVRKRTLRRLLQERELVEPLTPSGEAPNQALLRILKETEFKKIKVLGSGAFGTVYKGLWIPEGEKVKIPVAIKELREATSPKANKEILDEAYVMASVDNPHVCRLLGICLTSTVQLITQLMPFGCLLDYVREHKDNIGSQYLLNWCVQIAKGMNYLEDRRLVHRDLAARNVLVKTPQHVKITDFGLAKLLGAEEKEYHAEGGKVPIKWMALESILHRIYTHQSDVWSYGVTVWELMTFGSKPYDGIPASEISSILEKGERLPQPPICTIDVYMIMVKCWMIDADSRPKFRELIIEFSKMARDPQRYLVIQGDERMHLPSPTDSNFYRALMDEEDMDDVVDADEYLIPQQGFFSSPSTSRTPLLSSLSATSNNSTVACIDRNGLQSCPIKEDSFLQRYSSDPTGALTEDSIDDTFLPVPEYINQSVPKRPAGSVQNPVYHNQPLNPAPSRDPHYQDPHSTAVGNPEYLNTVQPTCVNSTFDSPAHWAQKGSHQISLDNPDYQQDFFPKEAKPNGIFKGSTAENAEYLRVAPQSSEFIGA
Chain of LCK (P06239 whole entry): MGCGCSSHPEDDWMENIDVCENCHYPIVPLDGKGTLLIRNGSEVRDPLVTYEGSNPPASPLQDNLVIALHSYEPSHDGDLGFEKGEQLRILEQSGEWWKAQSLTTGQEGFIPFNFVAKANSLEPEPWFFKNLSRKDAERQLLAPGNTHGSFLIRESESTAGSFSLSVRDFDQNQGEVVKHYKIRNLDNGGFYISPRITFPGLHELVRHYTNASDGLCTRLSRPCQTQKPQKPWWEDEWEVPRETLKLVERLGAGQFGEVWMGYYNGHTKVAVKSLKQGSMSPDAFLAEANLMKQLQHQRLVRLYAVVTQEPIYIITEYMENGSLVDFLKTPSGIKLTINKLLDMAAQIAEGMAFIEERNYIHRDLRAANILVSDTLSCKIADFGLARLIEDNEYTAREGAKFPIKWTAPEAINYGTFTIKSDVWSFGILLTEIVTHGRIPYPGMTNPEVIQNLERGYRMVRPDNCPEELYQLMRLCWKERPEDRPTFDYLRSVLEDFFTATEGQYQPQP
Chain of SRC (P12931 whole entry): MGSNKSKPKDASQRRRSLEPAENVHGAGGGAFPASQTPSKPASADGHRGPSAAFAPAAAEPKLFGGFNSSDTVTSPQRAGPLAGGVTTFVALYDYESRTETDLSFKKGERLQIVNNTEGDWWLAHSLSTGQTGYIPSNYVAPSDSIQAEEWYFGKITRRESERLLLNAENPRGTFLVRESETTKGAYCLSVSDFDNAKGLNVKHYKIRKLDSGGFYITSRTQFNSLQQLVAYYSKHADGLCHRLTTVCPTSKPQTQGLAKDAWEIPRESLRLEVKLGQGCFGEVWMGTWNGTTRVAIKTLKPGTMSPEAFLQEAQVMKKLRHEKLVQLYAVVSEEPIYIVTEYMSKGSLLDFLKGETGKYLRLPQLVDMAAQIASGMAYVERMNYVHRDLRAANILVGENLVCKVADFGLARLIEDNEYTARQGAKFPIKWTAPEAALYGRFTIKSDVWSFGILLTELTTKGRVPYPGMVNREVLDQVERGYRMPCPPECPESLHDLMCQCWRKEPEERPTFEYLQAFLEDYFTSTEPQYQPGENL

Row | SMILES | IC50 ([1]; E compounds, Table 17) | IC50 ([2]; E compounds, Table 17) | IC50 ([3]; E compounds, Table 17) | IC50 ([4]; E compounds, Table 17) | IC50 ([5]; E compounds, Table 17) | IC50 ([6]; E compounds, Table 17) | IC50 [1, 7] | IC50 [2, 7] | IC50 [3, 7] | IC50 [4, 7] | IC50 [5, 7] | IC50 [6, 7]
1 | C[C@@H]1[C@H](NC(=O)c2ccc(C3CC3)c(Cl)c2)CCCN1c1cnc(C(N)=O)c(Nc2ccc(N3CCN(C)CC3)cc2)n1 [Example A-189, 5-((2R,3R)-3-(3-chloro-4-cyclopropylbenzamido)-2-methylpiperidin-1-yl)-3-(4-(4-methylpiperazin-1-yl)phenylamino)pyrazine-2-carboxamide] | – | – | – | – | – | – | 1000 to 10000 nM | 100 to 1000 nM | 100 to 1000 nM | 1000 to 10000 nM | 100 to 1000 nM | 100 to 1000 nM
2 | C[C@@H]1[C@H](NC(=O)c2ccc(C3CC3)cn2)CCCN1c1cnc(C(N)=O)c(Nc2ccc(N3CCN(C)CC3)cc2)n1 [Example A-179, 5-[(2R,3R)-3-(5-cyclopropyl-pyridine-2-amido)-2-methylpiperidin-1-yl]-3-{[4-(4-methylpiperazin-1-yl)phenyl]amino}pyrazine-2-carboxamide] | – | – | – | – | – | – | 1000 to 10000 nM | 100 to 1000 nM | 100 to 1000 nM | 100 to 1000 nM | 10 to 100 nM | 10 to 100 nM
3 | C[C@@H]1[C@H](NC(=O)c2ccc(C3CC3)cc2F)CCCN1c1cnc(C(N)=O)c(Nc2ccc(CN3CCN(C)CC3)cc2)n1 [Example A-106, 5-[(2R,3R)-3-(4-cyclopropyl-2-fluorobenzamido)-2-methylpiperidin-1-yl]-3-({4-[(4-methylpiperazin-1-yl)meth-yl]phenyl}amino)pyrazine-2-carboxamide] | – | – | – | – | – | – | 100 to 1000 nM | 10 to 100 nM | 100 to 1000 nM | 100 to 1000 nM | 100 to 1000 nM | 10 to 100 nM
4 | C[C@@H]1[C@H](NC(=O)c2ccc(C3CC3)cc2F)CCCN1c1cnc(C(N)=O)c(Nc2ccc(N3CCN(C4CCCC4)CC3)cc2)n1 [Example A-125, 3-{[4-(4-cyclopentylpiperazin-1-yl)phenyl]amino}-5-[(2R,3R)-3-(4-cyclopropyl-2-fluorobenzamido)-2-methylpiperidin-1-yl]pyrazine-2-carboxamide] | – | – | – | – | – | – | 100 to 1000 nM | 100 to 1000 nM | 100 to 1000 nM | 100 to 1000 nM | 10 to 100 nM | 10 to 100 nM
5 | C[C@@H]1[C@H](NC(=O)c2ccc(C3CC3)cc2)CCCN1c1cnc(C(N)=O)c(Nc2cnn(CCN(C)C)c2)n1 [Example A-182, 5-[(2R,3R)-3-(4-cyclopropylbenzamido)-2-methylpiperidin-1-yl]-3-({1-[2-(dimethylamino)ethyl]-1H-pyrazol-4-yl}amino)pyrazine-2-carboxamide] | – | – | – | – | – | – | 1000 to 10000 nM | 100 to 1000 nM | 1000 to 10000 nM | 1000 to 10000 nM | 100 to 1000 nM | 100 to 1000 nM
6 | C[C@@H]1[C@H](NC(=O)c2ccc(C3CC3)cc2F)CCCN1c1cnc(C(N)=O)c(Nc2ccc(S(=O)(=O)N3CCCC3)cc2)n1 [Example A-175, 5-[(2R,3R)-3-(4-cyclopropyl-2-fluorobenzamido)-2-methylpiperidin-1-yl]-3-{[4-(pyrrolidine-1-sulfonyl)phenyl]amino}pyr-azine-2-carboxamide] | – | – | – | – | – | – | > 10000 nM | > 10000 nM | > 10000 nM | 1000 to 10000 nM | > 10000 nM | 100 to 1000 nM
7 | C[C@@H]1[C@H](NC(=O)c2ccc(C3CC3)cc2)CCCN1c1cnc(C(N)=O)c(Nc2cnn(C3CCN(C)CC3)c2)n1 [Example A-173] | – | – | – | – | – | – | 1000 to 10000 nM | 10 to 100 nM | 100 to 1000 nM | 100 to 1000 nM | 10 to 100 nM | 10 to 100 nM
8 | C[C@@H]1[C@H](NC(=O)c2ccc(C3CC3)cc2F)CCCN1c1cnc(C(N)=O)c(Nc2ccc(N3CCN(C)C[C@@H]3C)cc2)n1 [Example A-176, 5-[(2R,3R)-3-(4-cyclopropyl-2-fluorobenzamido)-2-methylpiperidin-1-yl]-3-({4-[(2S)-2,4-dimethylpiperazin-1-yl]phenyl}amino)pyrazine-2-carboxamide] | – | – | – | – | – | – | 100 to 1000 nM | 10 to 100 nM | 100 to 1000 nM | 100 to 1000 nM | 100 to 1000 nM | 10 to 100 nM

Continued, values first:

Row | IC50 ([1]; E compounds, Table 17) | IC50 ([2]; E compounds, Table 17) | IC50 ([3]; E compounds, Table 17) | IC50 ([4]; E compounds, Table 17) | IC50 ([5]; E compounds, Table 17) | IC50 ([6]; E compounds, Table 17) | IC50 [1, 7] | IC50 [2, 7] | IC50 [3, 7] | IC50 [4, 7] | IC50 [5, 7] | IC50 [6, 7] | SMILES
9 | 100 to 1000 nM | 10 to 100 nM | 100 to 1000 nM | > 10000 nM | 10 to 100 nM | ≤ 10 nM | – | – | – | – | – | – | C[C@@H]1[C@H](NC(=O)c2ccc(C(C)(C)N3CCCC3)cc2)CCCN1c1cnc(C(N)=O)c(Nc2cnn(C)c2)n1 [Example E-143, 3-((1-methyl-1H-pyrazol-4-yl)amino)-5-((2R,3R)-2-methyl-3-(4-(2-(pyrrolidin-1-yl)propan-2-yl)benzamido)piperidin-1-yl)pyrazine-2-carboxamide]
10 | < 10 nM | 100 to 1000 nM | ≤ 10 nM | 10 to 100 nM | 10 to 100 nM | ≤ 10 nM | – | – | – | – | – | – | C=CC(=O)N1CC[C@@H](N(C)c2cnc(C(N)=O)c(Nc3ccc(C4CCN(C5CCCC5)CC4)cc3)n2)C1 [Example E-109, (R)-5-((1-acryloylpyrrolidin-3-yl)(methyl)amino)-3-(4-(1-cyclopentylpiperidin-4-yl)phenylamino)pyrazine-2-carboxamide]
11 | 100 to 1000 nM | 10 to 100 nM | 10 to 100 nM | 100 to 1000 nM | 10 to 100 nM | ≤ 10 nM | – | – | – | – | – | – | C[C@@H]1[C@H](NC(=O)c2ccc(C3CC3)cc2)CCCN1c1cnc(C(N)=O)c(Nc2ccc(OC3CCN(C)C3)cc2)n1 (stereo partly drawn) [Example E-136, 5-((2R,3R)-3-(4-cyclopropylbenzamido)-2-methylpiperidin-1-yl)-3-((4-((1-methylpyrrolidin-3-yl)oxy)phenyl)amino) pyrazine-2-carboxamide]
12 | < 10 nM | 10 to 100 nM | ≤ 10 nM | ≤ 10 nM | 10 to 100 nM | ≤ 10 nM | – | – | – | – | – | – | C=CC(=O)N1CC[C@@H](N(C)c2cnc(C(N)=O)c(Nc3ccc(C4CCN(C5CC5)CC4)cc3)n2)C1 [Example E-121, (R)-5-((1-acryloylpyrrolidin-3-yl)(methyl)amino)-3-(4-(1-cyclopropylpiperidin-4-yl)phenylamino)pyrazine-2-carboxamide]
